Measured values taken from patent US20080045504A1, “Benzonitrile Derivatives to Treat Musculoskeletal Frailty” (PFIZER PRODUCTS INC., priority 2004, published 2008).

Molecular target: T1, recombinant human androgen receptor (hAR) (Homo sapiens, UniProt P10275)
T1 construct: made in house; host or cells: baculovirus/Sf9 insect cells (crude extract)
T1 sequence (P10275 1-920): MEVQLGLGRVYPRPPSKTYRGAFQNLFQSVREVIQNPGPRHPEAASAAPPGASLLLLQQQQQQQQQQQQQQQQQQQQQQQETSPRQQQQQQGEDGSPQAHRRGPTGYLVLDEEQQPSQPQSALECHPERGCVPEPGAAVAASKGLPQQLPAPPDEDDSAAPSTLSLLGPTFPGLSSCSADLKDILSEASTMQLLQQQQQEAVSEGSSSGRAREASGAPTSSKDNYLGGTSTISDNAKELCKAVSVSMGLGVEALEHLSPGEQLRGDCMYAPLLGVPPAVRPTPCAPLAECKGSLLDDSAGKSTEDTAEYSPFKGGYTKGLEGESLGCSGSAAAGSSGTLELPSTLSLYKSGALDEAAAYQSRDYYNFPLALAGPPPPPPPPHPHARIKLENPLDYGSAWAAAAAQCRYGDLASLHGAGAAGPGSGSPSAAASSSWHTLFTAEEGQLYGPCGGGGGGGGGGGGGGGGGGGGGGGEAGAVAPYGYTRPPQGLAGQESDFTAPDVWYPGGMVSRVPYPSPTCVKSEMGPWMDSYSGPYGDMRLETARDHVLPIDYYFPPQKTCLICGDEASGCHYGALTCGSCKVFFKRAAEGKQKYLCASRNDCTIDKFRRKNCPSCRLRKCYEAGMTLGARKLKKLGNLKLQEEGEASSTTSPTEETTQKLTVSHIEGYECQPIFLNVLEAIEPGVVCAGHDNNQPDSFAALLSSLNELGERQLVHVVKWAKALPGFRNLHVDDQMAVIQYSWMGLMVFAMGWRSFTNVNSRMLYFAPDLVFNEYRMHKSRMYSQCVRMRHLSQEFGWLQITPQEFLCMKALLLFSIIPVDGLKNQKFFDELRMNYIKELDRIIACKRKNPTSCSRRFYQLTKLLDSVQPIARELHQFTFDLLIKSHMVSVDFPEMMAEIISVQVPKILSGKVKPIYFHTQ
Assay: Human androgen receptor binding analysis (3H-DHT competitive binding)
Protocol: The following is a brief description of the assay that determines the affinity of a compound for the recombinant human androgen receptor (hAR). Competitive binding analysis is performed on baculovirus/Sf9 generated hAR extracts in the presence or absence of differing concentrations of drug and a fixed concentration of ^3H-dihydrotestosterone (^3H-DHT) as tracer. This binding assay method is a modification of a protocol previously described (Chang, et. al. J. Steroid Biochem. 20(1):11-17 1984). Briefly, progressively decreasing concentrations of compounds are incubated in the presence of hAR extract (Chang et al. P.N.A.S. Vol. 89, pp. 5546-5950, 1992), hydroxylapatite and 1 nM ^3H-DHT for one hour at 4° C. Subsequently, the binding reactions are washed three times to completely remove excess unbound ^3H-DHT. hAR bound ^3H-DHT levels are determined in the presence of compounds (=competitive binding) and compared to levels bound when no competitor is present (=maximum binding). Compound binding affinity to the hAR is expressed as the concentration of compound at which one half of the maximum binding is inhibited (the IC50).

For `CC[C@H]1CCCCN1c1cc(F)c(C#N)c(F)c1` [Example 2, 4-(2-(S)-Ethyl-piperidin-1-yl)-2,6-difluoro-benzonitrile], the IC50 was 1.15 nM.

`CC[C@H]1CCCCN1c1ccc(C#N)c(Cl)c1` [Example 3, 2-Chloro-4-(2-(S)-ethyl-piperidin-1-yl)-benzonitrile] was tested, and the IC50 was 3.67 nM.

With `CC[C@H]1CCCCN1c1ccc(C#N)c(C#N)c1` [Example 4, 4-(2-(S)-Ethyl-piperidin-1-yl)-phthalonitrile] the IC50 was 7.75 nM.

For `CCC1CCCCN1c1ccc(C#N)c(C#N)c1` (stereo not shown) [Example 5, 4-(2-Ethyl-piperidin-1-yl)-phthalonitrile], the IC50 was 5.35 nM.

`CCC1CCCCN1c1ccc(C#N)c(C(F)(F)F)c1` (stereo not shown) [Example 6, 4-(2-Ethyl-piperidin-1-yl)-2-trifluoromethyl-benzonitrile] was tested, and the IC50 was 1.83 nM.

With `CC[C@@H](C)N(CC)c1ccc(C#N)c(Cl)c1` [Example 8, 4-((R)-sec-Butyl-ethyl-amino)-2-chloro-benzonitrile] the IC50 was 1.4 nM.

With `CC[C@@H](C)N(C)c1ccc(C#N)c(Cl)c1` [Example 9, 4-((R)-sec-Butyl-methyl-amino)-2-chloro-benzonitrile] the IC50 was 3.63 nM.

In the case of `CCCN(c1ccc(C#N)c(Cl)c1)[C@H](C)CC` [Example 10, 4-((R)-sec-Butyl-propyl-amino)-2-chloro-benzonitrile], the IC50 is reported as 3.28 nM.

`CCCN(c1ccc(C#N)c(C#N)c1)[C@H](C)CC` [Example 11, 4-((R)-sec-Butyl-propyl-amino)-phthalonitrile] gave an IC50 of 8 nM.

Compound `CC[C@@H](C)N(CC)c1ccc(C#N)c(C(F)(F)F)c1` [Example 12, 4-((R)-sec-Butyl-ethyl-amino)-2-trifluoromethyl-benzonitrile] has an IC50 of 3.21 nM.

With `CC[C@@H](C)N(C)c1ccc(C#N)c(C#N)c1` [Example 13, 4-((R)-sec-Butyl-methyl-amino)-phthalonitrile] the IC50 was 2.9 nM.

`CC[C@@H](C)N(CC)c1ccc(C#N)c(C#N)c1` [Example 14] gave an IC50 of 3.8 nM.

`CCCN(CCC)c1ccc(C#N)c(C(F)(F)F)c1` [Example 15, 4-Dipropylamino-2-trifluoromethyl-benzonitrile] gave an IC50 of 1.68 nM.

`CCN(c1ccc(C#N)c(C#N)c1)C(C)C` [Example 16, 4-(Ethyl-isopropyl-amino)-phthalonitrile] gave an IC50 of 3.06 nM.

Work on `CCC(C)N(C)c1ccc(C#N)c(C(F)(F)F)c1` (stereo not shown) [Example 17, 4-(sec-Butyl-methyl-amino)-2-trifluoromethyl-benzonitrile] yielded an IC50 of 3.99 nM.

`CCCN(c1ccc(C#N)c(C#N)c1)C(C)CC` (stereo not shown) [Example 18, 4-(sec-Butyl-propyl-amino)-phthalonitrile] was tested, and the IC50 was 2.49 nM.

Work on `CCCN(CCC)c1ccc(C#N)c(C#N)c1` [Example 19, 4-Dipropylamino-phthalonitrile] yielded an IC50 of 6.44 nM.

`CCN(CC)c1ccc(C#N)c(C(F)(F)F)c1` [Example 20, 4-Diethylamino-2-trifluoromethyl-benzonitrile] showed an IC50 of 2.62 nM.

`CCC(C)N(CC)c1ccc(C#N)c(C(F)(F)F)c1` (stereo not shown) [Example 21, 4-(sec-Butyl-ethyl-amino)-2-trifluoromethyl-benzonitrile] showed an IC50 of 1.71 nM.

Work on `CCCN(CC)c1ccc(C#N)c(Cl)c1` [Example 22, 2-Chloro-4-(ethyl-propyl-amino)-benzonitrile] yielded an IC50 of 5.4 nM.

Work on `CC(C)N(C)c1ccc(C#N)c(Cl)c1` [Example 23, 2-Chloro-4-(isopropyl-methyl-amino)-benzonitrile] yielded an IC50 of 4.21 nM.

`CC(C)[C@@H](C)N(C)c1ccc(C#N)c(Cl)c1` [Example 25, 2-Chloro-4-[(1-(R), 2-dimethyl-propyl)-methyl-amino]-benzonitrile] showed an IC50 of 45.6 nM.

Compound `CC[C@H](C)N(C)c1ccc(C#N)c(C(F)(F)F)c1` [Example 26] has an IC50 of 5.47 nM.

With `CC[C@H](C)N(CC)c1ccc(C#N)c(C(F)(F)F)c1` [Example 27, 4-((S)-sec-Butyl-ethyl-amino)-2-trifluoromethyl-benzonitrile] the IC50 was 7.32 nM.

`CC1CCCN1c1ccc(C#N)c(C(F)(F)F)c1` (stereo not shown) [Example 28, 4-(2-Methyl-pyrrolidin-1-yl)-2-trifluoromethyl-benzonitrile] was tested, and the IC50 was 1.5 nM.

Work on `CCCC1CCCCN1c1ccc(C#N)c(C(F)(F)F)c1` (stereo not shown) [Example 30, 4-(2-Propyl-piperidin-1-yl)-2-trifluoromethyl-benzonitrile] yielded an IC50 of 2.33 nM.

Compound `CCC1CC(CO)CCN1c1ccc(C#N)c(C(F)(F)F)c1` (stereo not shown) [Example 31, 4-(2-Ethyl-4-hydroxymethyl-piperidin-1-yl)-2-trifluoromethyl-benzonitrile] has an IC50 of 9.63 nM.

Work on `CCCN(c1ccc(C#N)c(C(F)(F)F)c1)[C@H](C)CC` [Example 32, 4-((R)-sec-Butyl-propyl-amino)-2-trifluoromethyl-benzonitrile] yielded an IC50 of 5.97 nM.

Work on `C=CCN(C)c1ccc(C#N)c(C(F)(F)F)c1` [Example 33, 4-(Allyl-methyl-amino)-2-trifluoromethyl-benzonitrile] yielded an IC50 of 3.82 nM.

Work on `CC1CCCCN1c1ccc(C#N)c(C(F)(F)F)c1` (stereo not shown) [Example 34, 4-(2-Methyl-piperidin-1-yl)-2-trifluoromethyl-benzonitrile] yielded an IC50 of 24.8 nM.

With `CCOC[C@H]1CCCN1c1ccc(C#N)c(C(F)(F)F)c1` [Example 35, 4-(2(R)-(Ethoxy-methyl)-pyrrolidin-1-yl)-2-trifluoromethyl-benzonitrile] the IC50 was 2.07 nM.

Compound `N#Cc1ccc(N2CCCCC2CCO)cc1C(F)(F)F` (stereo not shown) [Example 36, 4-(2-(2-Hydroxyethyl)-piperidin-1-yl)-2-trifluoromethyl-benzonitrile] has an IC50 of 27.7 nM.

`COC[C@H]1CCCN1c1ccc(C#N)c(C(F)(F)F)c1` [Example 37, 4-(2(R)-(Methoxy-methyl)-pyrrolidin-1-yl)-2-trifluoromethyl-benzonitrile] showed an IC50 of 10.1 nM.

`CCCCCN(CC)c1ccc(C#N)c(C(F)(F)F)c1` [Example 38, 4-(Ethyl-pentyl-amino)-2-trifluoromethyl-benzonitrile] gave an IC50 of 11.6 nM.

Compound `CCCCN(CCC)c1ccc(C#N)c(C(F)(F)F)c1` [Example 39, 4-(Butyl-propyl-amino)-2-trifluoromethyl-benzonitrile] has an IC50 of 2 nM.

`CC(C)N(C)c1ccc(C#N)c(C(F)(F)F)c1` [Example 40, 4-(Isopropyl-methyl-amino)-2-trifluoromethyl-benzonitrile] gave an IC50 of 0.99 nM.

`CCCCCN(CCC)c1ccc(C#N)c(C(F)(F)F)c1` [Example 41, 4-(Pentyl-propyl-amino)-2-trifluoromethyl-benzonitrile] gave an IC50 of 9.39 nM.

With `N#Cc1ccc(N2CCCCC2CO)cc1C(F)(F)F` (stereo not shown) [Example 42, 4-(2-Hydroxymethyl-piperidin-1-yl)-2-trifluoromethyl-benzonitrile] the IC50 was 15.3 nM.

Compound `CCCCN(CC)c1ccc(C#N)c(C(F)(F)F)c1` [Example 43, 4-(Butyl-ethyl-amino)-2-trifluoromethyl-benzonitrile] has an IC50 of 7.58 nM.

With `CCCCN(CCCC)c1ccc(C#N)c(C(F)(F)F)c1` [Example 44, 4-(Dibutyl-amino)-2-trifluoromethyl-benzonitrile] the IC50 was 12.8 nM.

With `N#Cc1ccc(N2CCC[C@@H]2CO)cc1C(F)(F)F` [Example 45, 4-(2(R)-(Hydroxy-methyl)-pyrrolidin-1-yl)-2-trifluoromethyl-benzonitrile] the IC50 was 22.7 nM.

`CCCN(c1ccc(C#N)c(Cl)c1)C(C)C` [Example 46, 2-Chloro-4-(isopropyl-propyl-amino)-benzonitrile] showed an IC50 of 9.79 nM.

Compound `CCN(CC)c1ccc(C#N)c(Cl)c1` [Example 47, 2-Chloro-4-(diethyl-amino)-benzonitrile] has an IC50 of 2.98 nM.
